Measurements from patent US9428483B2, “Prodrug of fluorine-containing amino acid” (TAISHO PHARMACEUTICAL CO., LTD., priority 2012, dated 2016).

Key:
[1] = Test 1: Solution Stability Test; assay type: physicochemical; conditions: 37° C., one hour, about 50 μg/mL; for Compound's percent residue (%) pH 6.5: 20 mM phosphate buffer (pH 6.5); for Compound's percent residue (%) pH 1.2: hydrochloric acid solution (pH 1.2)
Procedure: Inventive Compounds (I) were tested for their stability in solutions simulating the gastric and small intestine's digestive fluids identified below.
The percent residues of Inventive Compounds (I) in a hydrochloric acid solution (pH 1.2) and 20 mM phosphate buffer (pH 6.5) were measured in accordance with the following test method.
A test compound was dissolved in a hydrochloric acid solution (pH 1.2) containing hydrochloric acid and sodium chloride or a 20 mM phosphate buffer (pH 6.5) containing disodium hydrogenphosphate, sodium dihydrogenphosphate and sodium chloride to prepare a solution with a concentration of about 50 μg/mL (near the solubility if undissolved). The solution was incubated at 37° C. for an hour and the compound's concentration before and after the incubation was quantified by high-performance liquid chromatography to calculate the percent residue of the compound.

[2] = Test 4: percent generation of Compound (IV) in human small intestine S9; assay type: in vitro ADME; conditions: 3 μM, 1 mg protein/mL, 37° C. x 1 hr
Procedure: A test to determine the percent generation of Compound (IV) in human intestine S9 was conducted for Inventive Compounds (I) in accordance with the following method.
Inventive Compounds were incubated (37° C.×1 hr) in a 0.1 M phosphate buffer (pH 7.4) together with a human intestine S9 fraction (Xenotech, LLC/CP710571/Lot, 710571) in the presence of Mg^2+ (5 mM), Ca^2+ (5 mM) and Zn^2+ (0.1 mM). The final concentrations of each Inventive Compound and the small intestine S9 protein were adjusted to 3 μM and 1 mg protein/mL, respectively. To the incubated reaction mixture, 3 volumes of DMSO was added, followed by stirring and centrifugation at 3000 rpm (4° C.×10 min). The resulting supernatant was subjected to analysis by a liquid chromatography-tandem mass spectrometry (LC-MS/MS) system. The lower quantitation limit was 0.3 μM for both Inventive Compounds (I) and Compound (IV).
The LC-MS/MS system used in the measurement was equipped with Waters XBridge Amide (3.5 μm, 50 mm×4.6 mm I.D.), Waters Atlantis T3 (3 μm, 50 mm×4.6 mm I.D.), or Shimadzu Shim-pack XR-ODS (2.2 μm, 30 mm×3.0 mm I.D.) as a separation column. The mobile phase was a 0.1% formic acid/acetonitrile solution or a 0.1% formic acid/methanol solution (flow rate: 0.7-1.3 mL/min) and the analyte was eluted in a linear gradient mode. MS/MS detection of Inventive Compounds (I) and Compound (IV) was performed using an API4000 or Triple quad 5500 system with TurbolonSpray interface (both being products of AB SCIEX) in either a positive or negative ion detection mode. The percent generation of Compound (IV) in human small intestine S9 is shown in the following Table 6 with respect to Inventive Compounds.

[3] = Test 5: plasma concentrations of Compound (IV) in monkey after oral administration; assay type: in vivo, cynomolgus monkeys
Procedure: A test to measure the plasma concentration of Compound (IV) upon oral administration of Compound (IV) and Inventive Compounds (I) was conducted in accordance with the following method.
Compound (IV) or Inventive Compounds (I) was orally administered to male cynomolgus monkeys (fed condition) at a dose of 4.92 μmol/kg (vehicle: 0.5% methyl cellulose (MC) solution; administered at a dose of 5 mL/kg).
Two and 4 hours after the oral administration, approximately 0.7 mL of blood was taken from the cephalic vein (anticoagulant: EDTA-2K). The plasma recovered by centrifugation (3000 rpm, 4° C.×10 min) was stored frozen at −80° C. until use for analysis. In the case of analysis, 50 μL of the plasma sample was thawed under cooling with ice and after adding 200 μL of a liquid acetonitrile/methanol mixture containing an internal standard substance, the resulting mixture was stirred and centrifuged (4° C.×10 min); the resulting supernatant was subjected to LC-MS/MS analysis. The lower quantitation limits of Inventive Compounds (I) and Compound (IV) were 1 ng/mL and 3 ng/mL, respectively.

mGluR3 = mGluR3 (Homo sapiens, UniProt Q14832); conditions: read-out: EC50 value for the agonistic activity for mGluR3; cited from earlier work
schizophrenia model rat = conditions: cited from earlier work
[4] = system: phencyclidine-elicited head-weaving behavior; conditions: schizophrenia model; cited from earlier work
[5] = system: conditioned avoidance response; conditions: schizophrenia model; cited from earlier work
[6] = Test 2: generation of Compound (IV) in human hepatic microsomes; assay type: in vitro ADME; conditions: human hepatic microsome
Procedure: A test to determine the percent generation of Compound (IV) in human and monkey hepatic microsomes was conducted for Inventive Compounds (I) in accordance with the following method. As a control for comparison, an ethyl ester form of Compound (IV) (Reference Example 1) was used.
A test compound was incubated (37° C.×15 min) in a 0.250 M phosphate buffer (pH 7.4) containing 69 mM KCl, together with a human hepatic microsome (Ms) fraction (Xenotech/H630B/lot, 0810472) or a monkey Ms fraction (BD Biosciences/452413/lot, 94518) in the presence of a NADPH generation system (0.16 mM NADP^+, 2.4 mM MgCl2, 1.5 mM glucose-6-phosphate). The final concentrations of the test compound and hepatic Ms protein were adjusted to 3 μM and 1 mg protein/mL, respectively. To the incubated reaction mixture, 2 volumes of DMSO was added, followed by stirring and centrifugation at 3000 rpm (4° C.×10 min) The resulting supernatant was subjected to analysis by a liquid chromatography-tandem mass spectrometry (LC-MS/MS) system. The lower quantitation limit was 0.3 μM for both the test compound and Compound (IV).

mGluR3, sequence (Q14832 23-879): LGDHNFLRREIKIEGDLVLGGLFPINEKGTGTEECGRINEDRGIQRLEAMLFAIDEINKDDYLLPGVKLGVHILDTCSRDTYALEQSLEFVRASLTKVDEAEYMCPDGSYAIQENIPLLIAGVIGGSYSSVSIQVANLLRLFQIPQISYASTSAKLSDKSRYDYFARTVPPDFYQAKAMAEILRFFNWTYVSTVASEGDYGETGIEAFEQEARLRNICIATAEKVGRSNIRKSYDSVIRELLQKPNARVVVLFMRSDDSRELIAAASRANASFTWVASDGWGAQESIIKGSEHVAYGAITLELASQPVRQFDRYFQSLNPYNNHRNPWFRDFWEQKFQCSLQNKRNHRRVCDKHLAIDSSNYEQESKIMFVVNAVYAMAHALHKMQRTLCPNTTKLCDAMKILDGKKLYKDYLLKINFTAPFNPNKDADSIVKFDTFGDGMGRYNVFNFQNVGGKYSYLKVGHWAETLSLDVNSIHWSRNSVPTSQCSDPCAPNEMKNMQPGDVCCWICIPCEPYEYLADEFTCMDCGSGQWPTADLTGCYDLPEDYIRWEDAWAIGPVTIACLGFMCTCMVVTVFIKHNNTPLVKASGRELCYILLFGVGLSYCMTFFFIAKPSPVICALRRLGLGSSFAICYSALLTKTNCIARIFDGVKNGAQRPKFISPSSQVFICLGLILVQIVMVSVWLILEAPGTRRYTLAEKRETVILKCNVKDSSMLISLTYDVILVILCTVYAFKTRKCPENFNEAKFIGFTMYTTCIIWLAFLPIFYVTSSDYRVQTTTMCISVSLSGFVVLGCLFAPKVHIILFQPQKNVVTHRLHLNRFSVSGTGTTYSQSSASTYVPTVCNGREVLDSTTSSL

Structure (SMILES) | Compound's percent residue (%) pH 6.5 [1] [%] | Compound's percent residue (%) pH 1.2 [1] [%] | Percent generation (%) of Compound IV in human small intestine S9 [2] [%] | other results
CSCC[C@H](N)C(=O)N[C@]1(C(=O)O)[C@H]2[C@@H](C[C@@H]1F)[C@@H]2C(=O)O.Cl [Ex. D-1, (1S,2S,3S,5R,6S)-2-((S)-2-amino-4-(methylthio)butanamide)-3-fluorobicyclo[3.1.0]hexane-2,6-dicarboxylic acid hydrochloride] | 102 | 103 | 20.9 | Concentration (ng/mL) of Compound IV in monkey plasma, After 2 hr ([3]; oral 4.92 μmol/kg, male cynomolgus monkeys (fed), 2 hr): 141 ng/mL; Concentration (ng/mL) of Compound IV in monkey plasma, After 4 hr ([3]; oral 4.92 μmol/kg, male cynomolgus monkeys (fed), 4 hr): 128 ng/mL
C[C@H](OC(=O)[C@H]1[C@@H]2C[C@H](F)[C@@](N)(C(=O)O)[C@@H]21)OC(=O)C12CC3CC(CC(C3)C1)C2.Cl |  |  |  | melting point: 164 °C (dec.)
CC[C@H](C)[C@H](N)C(=O)N[C@]1(C(=O)O)[C@H]2[C@@H](C[C@@H]1F)[C@@H]2C(=O)O.Cl [Ex. D-6, (1S,2S,3S,5R,6S)-2-((2S,3S)-2-amino-3-methylpentanamide)-3-fluorobicyclo[3.1.0]hexane-2,6-dicarboxylic acid hydrochloride] | 101 | 101 | <10 | 
CC(C)C[C@H](N)C(=O)N[C@]1(C(=O)O)[C@H]2[C@@H](C[C@@H]1F)[C@@H]2C(=O)O.Cl [Ex. D-7, (1S,2S,3S,5R,6S)-2-((S)-2-amino-4-methylpentanamide)-3-fluorobicyclo[3.1.0]hexane-2,6-dicarboxylic acid hydrochloride] | 102 | 99 | 11.7 | 
N[C@]1(C(=O)O)[C@H]2[C@@H](C[C@@H]1F)[C@@H]2C(=O)O [Compound IV, (1S,2S,3S,5R,6S)-2-amino-3-fluorobicyclo[3.1.0]hexane-2,6-dicarboxylic acid] |  |  |  | oral absorbability ([3]; in monkeys): poor; EC50 (mGluR3): 0.0454 µM; ED50 value, suppressing phencyclidine-elicited hyperactivity (schizophrenia model rat): 5.1 mg/kg; effect on phencyclidine-elicited head-weaving behavior [4]: has the effect of suppressing; effect on conditioned avoidance response [5]: has the effect of suppressing
CCOC(=O)[C@H]1[C@@H]2C[C@H](F)[C@@](N)(C(=O)O)[C@@H]21 [Ref. Ex. 1, (1S,2S,3S,5R,6S)-2-amino-6-(ethoxycarbonyl)-3-fluorobicyclo[3.1.0]hexane-2-carboxylic acid] |  |  |  | test compound remaining unchanged [6]: approximately 100%
